# Test results published in US4767872A, “Epoxide derivatives” (Centre National de la Recherche Scientifique (CNRS), priority 1985, dated 1988).
# Tests used:
# [1] = test system: CEC; experiment: Detection test with compound of formula V, normal cells CEC (Table II); format: cell-based, chicken; details: Gallus gallus, read-out: inhibition of the growth of the cells
# Method: (§1) Petri dishes having a diameter of 10 cm are seeded with 10^6 cells to be studied. At the end of 4 hours after seeding, the compound of formula V (with R'=R"=CH3, R'"=H) is added in the form of an aqueous solution containing 0.14 M NaCl, the solution having a volume of 100 microliters. The effect of the compound of formula V is studied at various concentrations.
# [2] = test system: MRC5; experiment: Detection test with compound of formula V, normal cells MRC5 (Table II); format: cell-based; details: Homo sapiens, read-out: inhibition of the growth of the cells
# Method: as §1
# [3] = test system: NRK; experiment: Detection test with compound of formula V, benign transformed cells NRK (Table II); format: cell-based; details: Rattus norvegicus, read-out: inhibition of the growth of the cells
# Method: as §1
# [4] = test system: NRK B77; experiment: Detection test with compound of formula V, malignant cells NRK B77 (Table II); format: cell-based; details: Rattus norvegicus, read-out: inhibition of the growth of the cells
# Method: as §1
# [5] = test system: HeLa; experiment: Detection test with compound of formula V, malignant cells HeLa (Table II); format: cell-based; details: Homo sapiens, read-out: inhibition of the growth of the cells
# Method: as §1
# [6] = molecular target: T1, RALD (aldehyde reductase) (Rattus norvegicus, UniProt P51635); experiment: In vitro test: inhibition of RALD in cellular homogenates of NRK B77 cells; format: biochemical
# T1 construct: NADPH, malonic dialdehyde substrate, pH 6
# T1 sequence (P51635 1-325): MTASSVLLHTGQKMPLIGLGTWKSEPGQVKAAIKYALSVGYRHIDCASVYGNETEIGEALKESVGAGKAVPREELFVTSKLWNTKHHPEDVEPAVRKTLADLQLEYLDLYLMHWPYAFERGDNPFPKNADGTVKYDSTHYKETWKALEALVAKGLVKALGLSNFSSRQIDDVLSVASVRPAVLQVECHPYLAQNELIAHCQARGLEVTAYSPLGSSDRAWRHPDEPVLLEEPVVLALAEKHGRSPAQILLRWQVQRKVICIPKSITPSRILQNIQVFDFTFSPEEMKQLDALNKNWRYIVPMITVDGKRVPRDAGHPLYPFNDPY
# Method: Cellular homogenates of NRK B77 cells which contain about 500 micrograms of the enzyme are prepared and incubated with the compound of Example 1 at doses of 0.2 mM, 0.8 mM and 1 mM. The incubation lasts for 15, 30 or 60 minutes.
# After incubation, an aliquot is added to the substrate which is 2 mM malonic dialdehyde dissolved in a phosphate buffer of pH 6 containing 0.35 mM of NADPH (co-factor of the enzyme).
# The optical density is measured every minute, for 5 minutes, at 340 nm.
# The transformation of NADPH into […] causes a linear reduction of the optical density. The inhibiting effect is evaluated by the difference between the variation of the optical density in the controls (without inhibitor) and the variation of the optical density with the inhibitor.
# [7] = test system: MRC5; experiment: Growth inhibition, normal diploid cells MRC5 (Table 1); format: cell-based; details: Homo sapiens, 96 h, 4 days, read-out: Cellular growth, percentage of inhibition
# Method: (§2) The tests are carried out in the following manner:
# (§3) A culture medium, constituted by the Eagle minimum medium to which has been added 10% of calf serum, is seed with 2×10^5 cells being studied.
# (§4) After 4 days of culture, the inhibition relative to non-treated control cultures is measured.
# [8] = test system: NRK; experiment: Growth inhibition, established line NRK (Table 1); format: cell-based, rat; details: 4 days
# Method: as §2, §3, §4
# [9] = test system: HeLa; experiment: Growth inhibition, transformed cells HeLa (Table 1); format: cell-based; details: Homo sapiens, 96 h, 4 days, read-out: Cellular growth, percentage of inhibition
# Method: as §2, §3, §4
# [10] = test system: HEp2; experiment: Growth inhibition, transformed cells HEp2 (Table 1); format: cell-based, human; details: 4 days
# Method: as §2, §3, §4
# [11] = test system: 293; experiment: Growth inhibition, transformed cells 293 (Table 1); format: cell-based, human; details: 4 days
# Method: as §2, §3, §4
# [12] = test system: NRK B77; experiment: Growth inhibition, transformed cells NRK B77 (Table 1); format: cell-based; details: Rattus norvegicus, 96 h, 4 days, read-out: Cellular growth, percentage of inhibition
# Method: as §2, §3, §4
# [13] = Toxicity on mice; format: in vivo; details: intraperitoneal
# Method: The study of the toxicity has been carried out on mice. The product of Example 1 is administered intraperitoneally at a dosage of 3 g/kg body weight daily for 8 days.
smiles,measurement,setting,value
CC(C)(N)C#CC=O,inhibition at 5 µM,[1]; 0.5 × 10^-5 M,0%
same,inhibition at 100 µM,[1]; 1 × 10^-4 M,0%
same,inhibition at 200 µM,[1]; 2 × 10^-4 M,0%
same,inhibition at 400 µM,[1]; 4 × 10^-4 M,10%
same,inhibition at 600 µM,[1]; 6 × 10^-4 M,12%
same,inhibition at 5 µM,"[2]; MRC5, 0.5 × 10^-5 M",0%
same,inhibition at 100 µM,"[2]; MRC5, 1 × 10^-4 M",0%
same,inhibition at 200 µM,"[2]; MRC5, 2 × 10^-4 M",0%
same,inhibition at 400 µM,"[2]; MRC5, 4 × 10^-4 M",0%
same,inhibition at 600 µM,"[2]; MRC5, 6 × 10^-4 M",18%
same,inhibition at 5 µM,[3]; 0.5 × 10^-5 M,0%
same,inhibition at 100 µM,[3]; 1 × 10^-4 M,0%
same,inhibition at 200 µM,[3]; 2 × 10^-4 M,0%
same,inhibition at 400 µM,[3]; 4 × 10^-4 M,0%
same,inhibition at 600 µM,[3]; 6 × 10^-4 M,0%
same,inhibition at 5 µM,"[4]; NRK B77, 0.5 × 10^-5 M",0%
same,inhibition at 100 µM,"[4]; NRK B77, 1 × 10^-4 M",16%
same,inhibition at 200 µM,"[4]; NRK B77, 2 × 10^-4 M",31%
same,inhibition at 400 µM,"[4]; NRK B77, 4 × 10^-4 M",57%
same,inhibition at 600 µM,"[4]; NRK B77, 6 × 10^-4 M",79%
same,inhibition at 5 µM,[5]; 0.5 × 10^-5 M,0%
same,inhibition at 100 µM,[5]; 1 × 10^-4 M,18%
same,inhibition at 200 µM,[5]; 2 × 10^-4 M,36%
same,inhibition at 400 µM,[5]; 4 × 10^-4 M,78%
same,inhibition at 600 µM,[5]; 6 × 10^-4 M,91%
"CC(C)(N)C#CC1(C)CO1 (stereo not shown) [Example 1, 5,6-epoxy-2,5-dimethyl-3-hexyne-2-amine]",inhibition of the RALD activity,"[6]; 1 mM, 30 minutes",total inhibition
same,remaining activity at 800 µM,"[6]; 0.5 h, 0.8 mM, 30 minutes",~10%
same,remaining activity at 200 µM,"[6]; 1 h, 0.2 mM, 60 minutes",< 25%
same,inhibition at 100 µM,"[7]; MRC5, 1 × 10^-4 M",0%
same,inhibition at 200 µM,"[7]; MRC5, 2 × 10^-4 M",0%
same,inhibition at 400 µM,"[7]; MRC5, 4 × 10^-4 M",0%
same,inhibition at 50 µM,"[7]; MRC5, 5 × 10^-5 M",0%
same,inhibition at 600 µM,"[7]; MRC5, 6 × 10^-4 M",0%
same,"Cellular growth, percentage of inhibition",[8]; 6 × 10^-4 M,Dead
same,inhibition at 200 µM,"[8]; Rattus norvegicus, 96 h, 2 × 10^-4 M, read-out: Cellular growth, percentage of inhibition",30%
same,inhibition at 400 µM,"[8]; Rattus norvegicus, 96 h, 4 × 10^-4 M, read-out: Cellular growth, percentage of inhibition",60%
same,inhibition at 100 µM,[9]; 1 × 10^-4 M,0%
same,inhibition at 200 µM,[9]; 2 × 10^-4 M,20%
same,inhibition at 400 µM,[9]; 4 × 10^-4 M,80%
same,inhibition at 50 µM,[9]; 5 × 10^-5 M,0%
same,inhibition at 600 µM,[9]; 6 × 10^-4 M,90%
same,"Cellular growth, percentage of inhibition","[10]; HEp2, 6 × 10^-4 M",Dead
same,inhibition at 100 µM,"[10]; Homo sapiens, HEp-2, 96 h, HEp2, 1 × 10^-4 M, read-out: Cellular growth, percentage of inhibition",0%
same,inhibition at 200 µM,"[10]; Homo sapiens, HEp-2, 96 h, HEp2, 2 × 10^-4 M, read-out: Cellular growth, percentage of inhibition",20%
same,inhibition at 400 µM,"[10]; Homo sapiens, HEp-2, 96 h, HEp2, 4 × 10^-4 M, read-out: Cellular growth, percentage of inhibition",80%
same,inhibition at 50 µM,"[10]; Homo sapiens, HEp-2, 96 h, HEp2, 5 × 10^-5 M, read-out: Cellular growth, percentage of inhibition",0%
same,"Cellular growth, percentage of inhibition","[11]; 293, 1 × 10^-4 M",50%
same,"Cellular growth, percentage of inhibition","[11]; 293, 2 × 10^-4 M",90%
same,"Cellular growth, percentage of inhibition","[11]; 293, 4 × 10^-4 M",Dead
same,"Cellular growth, percentage of inhibition","[11]; 293, 5 × 10^-5 M",20%
same,"Cellular growth, percentage of inhibition","[11]; 293, 6 × 10^-4 M",Dead
same,inhibition at 100 µM,"[12]; NRK B77, 1 × 10^-4 M",0%
same,inhibition at 200 µM,"[12]; NRK B77, 2 × 10^-4 M",0%
same,inhibition at 400 µM,"[12]; NRK B77, 4 × 10^-4 M",50%
same,inhibition at 50 µM,"[12]; NRK B77, 5 × 10^-5 M",0%
same,inhibition at 600 µM,"[12]; NRK B77, 6 × 10^-4 M",60%
same,apparent toxicity,[13]; 3 g/kg daily for 8 days,No apparent toxicity
same,LD50,"[13]; mouse, in vivo, ip, read-out: DL50 (the source's name)",> 3000 mg/kg
